Results reported in patent US10308631B2, “Selective anti-cancer compounds” (NATIONAL UNIVERSITY OF SINGAPORE, priority 2015, dated 2019).

What was measured:
HCT-15 tumour sections = assay: Immunofluorescence analysis of xenograft tumour sections; format: in vivo, mice; conditions: 80 mg/kg, 12 days, vs control vehicle
Procedure: A, B: is a graphical representation of tumour volumes estimated periodically as indicated. Mice bearing established tumour xenografts using HCT15 or MDA-MB-231 cells were treated orally (PO) or intraperitoneally (IP) twice a day with the indicated doses of Compound 1 or Compound 16 for 12 or 15 days. Paclitaxel (PTX) was given intravenously at dose of 40 mg/kg, 3 times every 4 days. Error bars show ±S.D. from mean tumour volumes obtained from 6 mice. Student's t-test was performed to determine the statistical significance (*=p<0.005). C: is a bar graph showing quantification of cells (n>100 per condition) with misaligned chromosomes and multipolar mitotic-spindles. […] tumour sections treated with Compound 16 (80 mg/kg) or control vehicle for 12 days were stained with anti-β-tubulin antibodies and DAPI. The percentage of cells with misaligned chromosomes and multipolar mitotic-spindles was quantified and plotted with mean values±S.D.
To confirm the antimitotic efficacy of Compound 16 (b5) in vivo, immunofluorescence analysis of HCT-15 tumor sections treated with Compound 16 (80 mg/kg) or control vehicle for 12 days were stained with anti-β-tubulin antibodies and DAPI.

MCF7 = assay: MTT growth inhibition (GI50); format: cell-based; conditions: Homo sapiens, MCF7, breast cancer, 72 h
Procedure: (§1) Having shown that Compound 1 and its derivatives are effective against HeLa cervical cancer cells and human fibroblast BJ cell lines, Compound 1 was then tested against a panel of thirty different human cancer cells lines derived from gastric, colon, liver, breast, lung and cervical tumours and five different human normal cell lines, which were normal fibroblast cell lines (BJ normal, IMR90, WI38) and retinal pigmented epithelium cell lines (ARPE-19, hTert-immortalized RPE-1).
(§2) The cell lines detailed in Table 2, below, were cultured in the media shown and treated with Compound 1 at a range of different concentrations (from 0.1 μM to 10 μM) for 72 h in triplicate and a mean concentration value for Compound 1 to achieve 50% growth inhibition (GI50) in each cell line was determined by use of the MTT assay.
(§3) The MTT assay was performed by adding thiazolyl blue tetrazolium bromide (MTT reagent, Invitrogen) at a concentration of 0.5 mg/mL to each cell culture and the resulting mixture incubated for 4 h at 37° C. The medium was then removed, and the blue dye remaining in each well was dissolved in DMSO by mixing with a microplate mixer. The absorbance of each well at 540 nm and 660 nm was measured using a microplate reader (Benchmark plus, BIO-RAD). The optical density (OD) values were calculated by subtracting the absorbance at 660 nm from the absorbance at 540 nm. Mean OD values from control cells containing only DMSO treated wells were set as 100%. The resulting GI50 values (in μM) are set out in Table 2 below.

SGCC-GC38 = assay: MTT growth inhibition (GI50); format: cell-based; conditions: Homo sapiens, SGCC-GC38, gastric cancer, 72 h
Procedure: as §1, §2, §3

NUGC3 = assay: MTT growth inhibition (GI50); format: cell-based; conditions: Homo sapiens, NUGC-3, NUGC3, gastric cancer, 72 h
Procedure: as §1, §2, §3

Hep3 = assay: MTT growth inhibition (GI50); format: cell-based; conditions: Homo sapiens, Hep3, liver cancer, 72 h
Procedure: as §1, §2, §3

HCT15 = assay: MTT growth inhibition (GI50); format: cell-based; conditions: Homo sapiens, HCT-15, HCT15, colon cancer, 72 h
Procedure: as §1, §2, §3

A549 = assay: MTT growth inhibition (GI50); format: cell-based; conditions: Homo sapiens, A549, cancer (others), 72 h
Procedure: as §1, §2, §3

SNU-16 = assay: MTT growth inhibition (GI50); format: cell-based; conditions: Homo sapiens, SNU-16, gastric cancer, 72 h
Procedure: as §1, §2, §3

AZ521 = assay: MTT growth inhibition (GI50); format: cell-based; conditions: Homo sapiens, AZ-521, AZ521, gastric cancer, 72 h
Procedure: as §1, §2, §3

IM95 = assay: MTT growth inhibition (GI50); format: cell-based; conditions: Homo sapiens, IM95, gastric cancer, 72 h
Procedure: as §1, §2, §3

MDA-MB-231 = assay: MTT growth inhibition (GI50); format: cell-based; conditions: Homo sapiens, MDA-MB-231, breast cancer, 72 h
Procedure: as §1, §2, §3

HGC27 = assay: MTT growth inhibition (GI50); format: cell-based; conditions: Homo sapiens, HGC-27, HGC27, gastric cancer, 72 h
Procedure: as §1, §2, §3

HeLa = assay: MTT growth inhibition (GI50); format: cell-based; conditions: Homo sapiens, cancer (others), 72 h
Procedure: as §1, §2, §3

RPE-1/h-Tert = assay: MTT growth inhibition (GI50); format: cell-based; conditions: Homo sapiens, normal cell line, 72 h
Procedure: as §1, §2, §3

BJ Normal = assay: MTT growth inhibition (GI50); format: cell-based; conditions: Homo sapiens, normal cell line, 72 h
Procedure: as §1, §2, §3

NCC19 = assay: MTT growth inhibition (GI50); format: cell-based; conditions: Homo sapiens, NCC19, gastric cancer, 72 h
Procedure: as §1, §2, §3

SCH = assay: MTT growth inhibition (GI50); format: cell-based; conditions: Homo sapiens, gastric cancer, 72 h
Procedure: as §1, §2, §3

[1] = test system: non-transformed normal BJ cells; assay: Immunofluorescence of chromosome alignment, bipolar spindle and spindle poles; format: cell-based, human; conditions: 2.5 μM, 4 h, then MG132 1.5 h
Procedure: (§4) A: is a histogram showing isogenic non-transformed and oncogene-transformed BJ cells stably expressing GFP-tagged Histone H2B as a marker for chromosome segregation, treated with Compound 1 (a131) at 2.5 μM final concentration. Mitotic progression of these cells was monitored every 10 min. More than 100 cells per condition were quantified and classified into 3 groups: no, mild and severe mitotic defects with prolonged mitotic arrest, chromosome mis-segregation and failure in cytokinesis. […] The bars represent 5 μm in length. C: is a histogram showing quantification of defects in spindle formation and chromosome alignments (n>100 cells per condition).
(§5) To investigate why massive chromosome mis-segregation occurs in oncogene-transformed BJ cells when treated with Compound 1, but not in non-transformed BJ cells, the effects of Compound 1 were studied on isogenic BJ cell lines (transformed and non-transformed) that stably express GFP-Histone H2B. Cells cultured in accordance with Biology Example 3 were treated with Compound 1 at 2.5 μM final concentration for 4 h followed by MG132 for another 1.5 h to allow chromosome alignment. […]

[2] = test system: oncogene-transformed BJ cells; assay: as above; format: cell-based, human; conditions: 2.5 μM, 4 h, then MG132 1.5 h
Procedure: as §4, §5

With `CN1CCN(CC(=O)n2cc(/C(C#N)=C/c3cccc4cnccc34)c3ccccc32)CC1` [Compound 16, (Z)-3-(isoquinolin-5-yl)-2-(1-(2-(4-methylpiperazin-1-yl)acetyl)-1H-indol-3-yl)acrylonitrile] the “cancer cells with misaligned chromosomes and multipolar mitotic-spindles” value (HCT-15 tumour sections) was “significantly increased the number of cancer cells harbouring massively misaligned chromosomes with multipolar mitotic-spindles”.
`N#C/C(=C\c1cccc2cnccc12)c1c[nH]c2ccccc12` [Compound 1, (Z)-2-(1H-indol-3-yl)-3-(isoquinolin-5-yl)acrylonitrile] showed a GI50 (MCF7) of 1200 nM, a GI50 (SGCC-GC38) of 1900 nM and a GI50 (NUGC3) of 1000 nM. For the same compound, the GI50 (Hep3) was 3700 nM, the GI50 (HCT15) was 500 nM and the GI50 (A549) was 2000 nM. The GI50 (SNU-16) was 1000 nM, the GI50 (AZ521) was 2400 nM and the GI50 (IM95) was 1000 nM. The GI50 (MDA-MB-231) was 1100 nM, the GI50 (HGC27) was 1200 nM and the GI50 (HeLa) was 1400 nM. For the same compound, the GI50 (RPE-1/h-Tert) was 5200 nM, the GI50 (BJ Normal) was 8100 nM and the GI50 (NCC19) was 4600 nM. The GI50 (SCH) was 1700 nM, the “chromosome alignment and spindle formation” value [1] was “did not show marked defects in chromosome alignment” and the “chromosome alignment and spindle formation” value [2] was “massively misaligned chromosomes with the formation of multipolar spindles”.
